Several values for one entry are separate records, joined by “and”; a condition that tells them apart may be missing. Identical values can stand only once.
Biological target: T1, human P2X4 (Homo sapiens, UniProt Q99571)
T1 sequence (Q99571 1-388): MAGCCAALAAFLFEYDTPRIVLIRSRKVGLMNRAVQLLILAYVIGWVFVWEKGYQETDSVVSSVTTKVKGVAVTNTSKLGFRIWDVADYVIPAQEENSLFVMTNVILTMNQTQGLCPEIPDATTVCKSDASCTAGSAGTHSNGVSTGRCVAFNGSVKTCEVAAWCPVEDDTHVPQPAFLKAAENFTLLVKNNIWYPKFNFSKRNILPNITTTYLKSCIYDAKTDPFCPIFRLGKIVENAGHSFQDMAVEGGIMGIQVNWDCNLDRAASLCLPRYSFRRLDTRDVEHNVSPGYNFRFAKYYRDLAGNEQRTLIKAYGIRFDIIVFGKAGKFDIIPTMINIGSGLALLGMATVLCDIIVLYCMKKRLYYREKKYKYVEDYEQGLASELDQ
Experiment: Human P2X4 HEK Cell FLIPR Assay
Assay type: cell-based
Settings: agonist Bz-ATP at EC80; for Emax: HEK293, HEK293 cells, percentage of maximal inhibition, read-out: Human P2X4 HEK Cells (FLIPR Assay) avg Efficacy [%]; for IC50: HEK293 cells, individual values listed where some fall outside detection range
Outline: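 HEK293 cells stably expressing human P2X4, Fluo8-AM loaded 30 min at 37° C, then compound 30 min at room temperature (0.5% DMSO, pH 7.4 buffer with 1.8 mM CaCl2). Bz-ATP at its daily-determined EC80 added; calcium fluorescence read over 120 sec; IC50 from peak RFU normalized to agonist control, triplicates.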

| Structure (SMILES) | Emax | IC50 |
| --- | --- | --- |
| NS(=O)(=O)c1cc(NC(=O)Cc2ccc(F)c(F)c2)ccc1-c1cncc(C(F)(F)F)c1 [Example 451, 2-(3,4-Difluorophenyl)-N-{3-sulfamoyl-4-[5-(trifluoromethyl)pyridin-3-yl]phenyl}acetamide] | 86% | 244 nM |
| NS(=O)(=O)c1cc(NC(=O)Cc2ccccc2F)ccc1-n1cc(Cl)cn1 [Example 50, N-[4-(4-Chloro-1H-pyrazol-1-yl)-3-sulfamoylphenyl]-2-(2-fluorophenyl)acetamide] | 88% | 149 nM |
| NS(=O)(=O)c1cc(NC(=O)Cc2ccccc2Cl)ccc1-c1cnn(C2CCCC2)c1 [Example 329, 2-(2-Chlorophenyl)-N-[4-(1-cyclopentyl-1H-pyrazol-4-yl)-3-sulfamoylphenyl]acetamide] | 100% | 13 nM |
| CC(C)c1ccccc1CC(=O)Nc1ccc(-n2cc(C#N)cn2)c(S(N)(=O)=O)c1 [Example 213, N-[4-(4-Cyano-1H-pyrazol-1-yl)-3-sulfamoylphenyl]-2-[2-(propan-2-yl)phenyl]-acetamide] | 93% | 47 nM |
| NS(=O)(=O)c1cc(NC(=O)Cc2ccccc2F)ccc1-c1nnc(C(F)F)o1 [Example 523, N-{4-[5-(Difluoromethyl)-1,3,4-oxadiazol-2-yl]-3-sulfamoylphenyl}-2-(2-fluorophenyl)acetamide] | 89% | 149 nM |
| NS(=O)(=O)c1cc(NC(=O)Cc2ccccc2Cl)ccc1-c1nnc(C2CC2)o1 [Example 377, 2-(2-Chlorophenyl)-N-[4-(5-cyclopropyl-1,3,4-oxadiazol-2-yl)-3-sulfamoylphenyl]-acetamide] | 80% | 27 nM |
| NS(=O)(=O)c1cc(NC(=O)Cc2ccccc2OC(F)F)ccc1-n1cc(F)cn1 [Example 157, 2-[2-(Difluoromethoxy)phenyl]-N-[4-(4-fluoro-1H-pyrazol-1-yl)-3-sulfamoylphenyl]-acetamide] | 90% | 153 nM |
| CC(C)c1ncn(-c2ccc(NC(=O)Cc3ccccc3Cl)cc2S(N)(=O)=O)n1 [Example 233, 2-(2-Chlorophenyl)-N-[4-(3-isopropyl-1H-1,2,4-triazol-1-yl)-3-sulfamoylphenyl]-acetamide] | 80% | 93 nM |
| Cc1cn(-c2ccc(NC(=O)Cc3ccccc3Cl)cc2S(N)(=O)=O)cn1 [Example 251, 2-(2-Chlorophenyl)-N-[4-(4-methyl-1H-imidazol-1-yl)-3-sulfamoylphenyl]acetamide] | 96% | 21 nM |
| NS(=O)(=O)c1cc(NC(=O)Cc2ccc(Cl)cc2)ccc1-n1cc(Cl)cn1 [Example 76, 2-(4-Chlorophenyl)-N-[4-(4-chloro-1H-pyrazol-1-yl)-3-sulfamoylphenyl]acetamide] | 34% | > 25000 nM |
| COCCn1cc(-c2ccc(NC(=O)Cc3ccc(F)cc3Cl)cc2S(N)(=O)=O)cn1 [Example 277, 2-(2-Chloro-4-fluorophenyl)-N-{4-[1-(2-methoxyethyl)-1H-pyrazol-4-yl]-3-sulfamoyl-phenyl}acetamide] | 90% | 186 nM |
| NS(=O)(=O)c1cc(NC(=O)Cc2ccccc2Cl)ccc1-n1cnc(C(F)(F)F)c1 [Example 10, 2-(2-Chlorophenyl)-N-{3-sulfamoyl-4-[4-(trifluoromethyl)-1H-imidazol-1-yl]phenyl}-acetamide] | 81% | 7 nM |
| NS(=O)(=O)c1cc(NC(=O)Cc2ccccc2F)ccc1-n1cc(-c2ccncn2)cn1 [Example 405, 2-(2-Fluorophenyl)-N-{4-[4-(pyrimidin-4-yl)-1H-pyrazol-1-yl]-3-sulfamoylphenyl}acetamide] | 65% | 5670 nM |
| NS(=O)(=O)c1cc(NC(=O)Cc2ccccc2Cl)ccc1-n1ncc2ccccc21 [Example 395, 2-(2-Chlorophenyl)-N-[4-(1H-indazol-1-yl)-3-sulfamoylphenyl]acetamide] | 86% | 73 nM |
| N#Cc1cnn(-c2ccc(NC(=O)Cc3ccccc3[N+](=O)[O-])cc2S(N)(=O)=O)c1 [Example 180, N-[4-(4-Cyano-1H-pyrazol-1-yl)-3-sulfamoylphenyl]-2-(2-nitrophenyl)acetamide] | 77% | 319 nM |
| NS(=O)(=O)c1cc(NC(=O)Cc2cc(F)ccc2Cl)ccc1-c1cnn(C(F)F)c1 [Example 228, 2-(2-Chloro-5-fluorophenyl)-N-{4-[1-(difluoromethyl)-1H-pyrazol-4-yl]-3-sulfamoyl-phenyl}acetamide] | 92% | 37 nM |

| Structure (SMILES) | Emax | IC50 |
| --- | --- | --- |
| NS(=O)(=O)c1cc(NC(=O)Cc2ccccc2OC(F)F)ccc1-n1cc(Br)cn1 [Example 69, N-[4-(4-Bromo-1H-pyrazol-1-yl)-3-sulfamoylphenyl]-2-[2-(difluoromethoxy)-phenyl]acetamide] | 80% | 210 nM |
| NS(=O)(=O)c1cc(NC(=O)Cc2ccccc2F)ccc1-n1ncc(C(F)(F)F)n1 [Example 412, 2-(2-Fluorophenyl)-N-{3-sulfamoyl-4-[4-(trifluoromethyl)-2H-1,2,3-triazol-2-yl]phenyl}acetamide] | 68% | 1590 nM |
| NS(=O)(=O)c1cc(NC(=O)Cc2ccccc2Cl)ccc1-c1csc(C(F)(F)F)n1 [Example 433, 2-(2-Chlorophenyl)-N-{3-sulfamoyl-4-[2-(trifluoromethyl)-1,3-thiazol-4-yl]phenyl}acetamide] | 28% | > 25000 nM |
| NS(=O)(=O)c1cc(NC(=O)Cc2ccccc2Cl)ccc1-c1cnn(C2CCCCO2)c1 (stereo not shown) [Example 345, 2-(2-Chlorophenyl)-N-{3-sulfamoyl-4-[1-(tetrahydro-2H-pyran-2-yl)-1H-pyrazol-4-yl]phenyl}acetamide] | 93% | 46 nM |
| COc1ccc(CC(=O)Nc2ccc(-c3ccc(Cl)nc3)c(S(N)(=O)=O)c2)c(F)c1 [Example 472, N-[4-(6-Chloropyridin-3-yl)-3-sulfamoylphenyl]-2-(2-fluoro-4-methoxyphenyl)acetamide] | 97% | 197 nM |
| CC(C)c1cnn(-c2ccc(NC(=O)Cc3ccccc3F)cc2S(N)(=O)=O)c1 [Example 517, 2-(2-Fluorophenyl)-N-[4-(4-isopropyl-1H-pyrazol-1-yl)-3-sulfamoylphenyl]acetamide] | 74% | 187 nM |
| Cc1ccc(CC(=O)Nc2ccc(-c3cncc(C(F)(F)F)c3)c(S(N)(=O)=O)c2)c(F)c1 [Example 456, 2-(2-Fluoro-4-methylphenyl)-N-{3-sulfamoyl-4-[5-(trifluoromethyl)pyridin-3-yl]phenyl}acetamide] | 59% | 18 nM |
| Cc1nn(C)cc1-c1ccc(NC(=O)Cc2ccccc2F)cc1S(N)(=O)=O [Example 375, N-[4-(1,3-Dimethyl-1H-pyrazol-4-yl)-3-sulfamoylphenyl]-2-(2-fluorophenyl)acetamide] | 79% | 660 nM |
| NS(=O)(=O)c1cc(NC(=O)Cc2ccccc2Cl)ccc1-c1nc(C(F)(F)F)no1 [Example 521, 2-(2-Chlorophenyl)-N-{3-sulfamoyl-4-[3-(trifluoromethyl)-1,2,4-oxadiazol-5-yl]phenyl}acetamide] | 52% | 6.9 µM and 17.2 µM and > 25 µM (4×) |
| NS(=O)(=O)c1cc(NC(=O)Cc2ccccc2Cl)ccc1-c1nnc(C(F)(F)F)o1 [Example 391, 2-(2-Chlorophenyl)-N-{3-sulfamoyl-4-[5-(trifluoromethyl)-1,3,4-oxadiazol-2-yl]phenyl}acetamide] | 98% | 186 nM |
| NS(=O)(=O)c1cc(NC(=O)Cc2cc(F)c(F)cc2Cl)ccc1-n1cc(F)cn1 [Example 161, 2-(2-Chloro-4,5-difluorophenyl)-N-[4-(4-fluoro-1H-pyrazol-1-yl)-3-sulfamoylphenyl]] | 43% | > 25000 nM |
| NS(=O)(=O)c1cc(NC(=O)Cc2cccc(F)c2Cl)ccc1-c1cnn(C2CC2)c1 [Example 337, 2-(2-Chloro-3-fluorophenyl)-N-[4-(1-cyclopropyl-1H-pyrazol-4-yl)-3-sulfamoylphenyl]acetamide] | 96% | 30 nM |
| NS(=O)(=O)c1cc(NC(=O)Cc2ccccc2Cl)c(C(F)(F)F)cc1-n1cc(C(F)(F)F)cn1 [Example 532, 2-(2-Chlorophenyl)-N-{5-sulfamoyl-2-(trifluoromethyl)-4-[4-(trifluoromethyl)-1H-pyrazol-1-yl]phenyl}acetamide] | 60% | 11500 nM and 12900 nM and 17000 nM |
| COc1ccc(CC(=O)Nc2ccc(-n3cc(Cl)cn3)c(S(N)(=O)=O)c2)c(Cl)c1 [Example 94, 2-(2-Chloro-4-methoxyphenyl)-N-[4-(4-chloro-1H-pyrazol-1-yl)-3-sulfamoylphenyl]-acetamide] | 72% | 413 nM |
| NS(=O)(=O)c1cc(NC(=O)Cc2ccccc2Cl)ccc1-c1ncc(N2CCOCC2)s1 [Example 550, 2-(2-Chlorophenyl)-N-{4-[5-(morpholin-4-yl)-1,3-thiazol-2-yl]-3-sulfamoylphenyl}acetamide] | 87% | 1 nM |
| N#Cc1cnn(-c2ccc(NC(=O)C(O)c3ccccc3Cl)cc2S(N)(=O)=O)c1 (stereo not shown) [Example 558, 2-(2-Chlorophenyl)-N-[4-(4-cyano-1H-pyrazol-1-yl)-3-sulfamoylphenyl]-2-hydroxyacetamide] | 75% | 1380 nM |

Source: patent US11524938B2, “Aromatic sulfonamide derivatives” (Bayer Pharma Aktiengesellschaft, priority 2016, dated 2022)
